Test results taken from PubChem BioAssay AID1259407 (Chemical Carcinogenesis Research Information System (CCRIS), 2018).
Active and inactive are the calls of the source. The rule behind the calls is not given here.

Tested on: CCRIS mutagenicity, Ames/micronucleus/aberration tests
Experiment: CCRIS mutagenicity studies
[1] = Test System: AMES SALMONELLA TYPHIMURIUM, Strain/Indicator: TA98, Metabolic Activation: NONE, Method: STANDARD PLATE
[2] = Test System: AMES SALMONELLA TYPHIMURIUM, Strain/Indicator: TA98, Metabolic Activation: RAT, LIVER, S-9, AROCLOR 1254, Method: STANDARD PLATE
[3] = Test System: AMES SALMONELLA TYPHIMURIUM, Strain/Indicator: TA100, Metabolic Activation: NONE, Method: STANDARD PLATE
[4] = Test System: AMES SALMONELLA TYPHIMURIUM, Strain/Indicator: TA100, Metabolic Activation: RAT, LIVER, S-9, AROCLOR 1254, Method: STANDARD PLATE
[5] = Test System: AMES SALMONELLA TYPHIMURIUM, Strain/Indicator: TA100, Metabolic Activation: NONE, Method: PREINCUBATION
[6] = Test System: AMES SALMONELLA TYPHIMURIUM, Strain/Indicator: TA1535, Metabolic Activation: NONE, Method: STANDARD PLATE
[7] = Test System: AMES SALMONELLA TYPHIMURIUM, Strain/Indicator: TA98, Metabolic Activation: NONE, Method: PREINCUBATION
[8] = Test System: AMES SALMONELLA TYPHIMURIUM, Strain/Indicator: TA1537, Metabolic Activation: NONE, Method: STANDARD PLATE

With `O=S(c1cc(Cl)cc(Cl)c1O)c1cc(Cl)cc(Cl)c1O` the mutagenic call (Test System: AMES SALMONELLA TYPHIMURIUM, Strain/Indicator: TA97, Metabolic Activation: NONE, Method: STANDARD PLATE) was “inactive; negative”, the mutagenic call (Test System: AMES SALMONELLA TYPHIMURIUM, Strain/Indicator: TA97, Metabolic Activation: RAT, LIVER, S-9, AROCLOR 1254, Method: STANDARD PLATE) was “inactive; negative” and the mutagenic call [1] was “active; positive”. For the same compound, the mutagenic call [2] was “inactive; negative”, the mutagenic call [3] was “active; positive” and the mutagenic call [4] was “inactive; negative”. For the same compound, the mutagenic call (Test System: AMES SALMONELLA TYPHIMURIUM, Strain/Indicator: TA102, Metabolic Activation: NONE, Method: STANDARD PLATE) was “inactive; negative” and the mutagenic call (Test System: AMES SALMONELLA TYPHIMURIUM, Strain/Indicator: TA102, Metabolic Activation: RAT, LIVER, S-9, AROCLOR 1254, Method: STANDARD PLATE) was “inactive; negative”.

In the case of `Cc1ccc2ccc3c4ccccc4cc4ccc1c2c43`, the mutagenic call (Test System: AMES SALMONELLA TYPHIMURIUM, Strain/Indicator: TA100, Metabolic Activation: RAT, INTACT HEPATOCYTES, AROCLOR 1254, Method: PREINCUBATION) is reported as “active; positive” and the mutagenic call (Test System: AMES SALMONELLA TYPHIMURIUM, Strain/Indicator: TA100, Metabolic Activation: RAT, NADPH-FORTIFIED HOMOGENIZED HEPATOCYTES, AROCLOR 1254, Method: PREINCUBATION) is reported as “active; positive”.

With `O=NN(CCO)CC(=O)O` the mutagenic call [5] was “active; positive”.

With `CC[C@H](C)OS(C)(=O)=O` the mutagenic call [3] was “active; positive”, the mutagenic call [6] was “active; positive” and the mutagenic call (Test System: CHINESE HAMSTER V-79, Strain/Indicator: V-79/6-THIOGUANINE, Metabolic Activation: NONE) was “active; positive”.

With `CCOC(=O)CNC(=O)CBr` the mutagenic call (Test System: AMES SALMONELLA TYPHIMURIUM, Strain/Indicator: TA100, Metabolic Activation: MOUSE, LIVER, S-9, AROCLOR 1254, Method: STANDARD PLATE) was “inactive; negative” and the mutagenic call [3] was “inactive; negative”.

With `Nc1c2cc([N+](=O)[O-])ccc2nc2ccc([N+](=O)[O-])cc12` the mutagenic call (Test System: AMES SALMONELLA TYPHIMURIUM, Strain/Indicator: TA1537, Metabolic Activation: NONE) was “active; positive”.

For `Cn1c(N=[N+]=[N-])nc2ccccc21`, the mutagenic call [1] was “active; positive”.

With `O=[N+]([O-])c1ccc(CO)c([N+](=O)[O-])c1` the mutagenic call [7] was “active; positive”, the mutagenic call (Test System: AMES SALMONELLA TYPHIMURIUM, Strain/Indicator: TA98, Metabolic Activation: RAT, LIVER, S-9, AROCLOR, Method: PREINCUBATION) was “active; positive” and the mutagenic call (Test System: AMES SALMONELLA TYPHIMURIUM, Strain/Indicator: TA98, Metabolic Activation: RAT, LIVER, S-9, PHENOBARBITAL AND 5,6-BENZOFLAVONE, Method: PREINCUBATION) was “active; positive”. The mutagenic call [5] was “active; positive” and the mutagenic call (Test System: AMES SALMONELLA TYPHIMURIUM, Strain/Indicator: TA100, Metabolic Activation: RAT, LIVER, S-9, PHENOBARBITAL AND 5,6-BENZOFLAVONE, Method: PREINCUBATION) was “active; positive”.

In the case of `N#Cc1cccc2c([N+](=O)[O-])cccc12`, the mutagenic call [3] is reported as “active; positive” and the mutagenic call (Test System: AMES SALMONELLA TYPHIMURIUM, Strain/Indicator: TA100, Metabolic Activation: S-9 MIX, Method: STANDARD PLATE) is reported as “active; positive”.

With `O=[N+]([O-])c1cccc(S(=O)(=O)OC[C@@H]2CO2)c1` the mutagenic call [3] was “active; positive”.

For `[O]=[Cd]`, the mutagenic call (End Point: In vivo micronucleus, Test System: Peripheral blood lymphocytes, Species: Dog, Strain/Sex: Mongrel/Male, Female, Route: Oral) was “active; positive in group 2”, the mutagenic call (Test System: AMES SALMONELLA TYPHIMURIUM, Strain/Indicator: TA98, Metabolic Activation: HAMSTER, LIVER, S-9, AROCLOR 1254 (10%), Method: PREINCUBATION) was “inactive; negative” and the mutagenic call [7] was “inactive; negative”. For the same compound, the mutagenic call (Test System: AMES SALMONELLA TYPHIMURIUM, Strain/Indicator: TA98, Metabolic Activation: RAT, LIVER, S-9, AROCLOR 1254 (10%), Method: PREINCUBATION) was “inactive; negative”, the mutagenic call (Test System: AMES SALMONELLA TYPHIMURIUM, Strain/Indicator: TA100, Metabolic Activation: HAMSTER, LIVER, S-9, AROCLOR 1254 (10%), Method: PREINCUBATION) was “inactive; negative” and the mutagenic call [5] was “inactive; negative”. The mutagenic call (Test System: AMES SALMONELLA TYPHIMURIUM, Strain/Indicator: TA100, Metabolic Activation: RAT, LIVER, S-9, AROCLOR 1254 (10%), Method: PREINCUBATION) was “inactive; negative”, the mutagenic call (Test System: AMES SALMONELLA TYPHIMURIUM, Strain/Indicator: TA1535, Metabolic Activation: HAMSTER, LIVER, S-9, AROCLOR 1254 (10%), Method: PREINCUBATION) was “inactive; negative” and the mutagenic call (Test System: AMES SALMONELLA TYPHIMURIUM, Strain/Indicator: TA1535, Metabolic Activation: NONE, Method: PREINCUBATION) was “inactive; negative”. For the same compound, the mutagenic call (Test System: AMES SALMONELLA TYPHIMURIUM, Strain/Indicator: TA1535, Metabolic Activation: RAT, LIVER, S-9, AROCLOR 1254 (10%), Method: PREINCUBATION) was “inactive; negative”, the mutagenic call (Test System: AMES SALMONELLA TYPHIMURIUM, Strain/Indicator: TA1537, Metabolic Activation: HAMSTER, LIVER, S-9, AROCLOR 1254 (10%), Method: PREINCUBATION) was “inactive; negative” and the mutagenic call (Test System: AMES SALMONELLA TYPHIMURIUM, Strain/Indicator: TA1537, Metabolic Activation: NONE, Method: PREINCUBATION) was “inactive; negative”. For the same compound, the mutagenic call (Test System: AMES SALMONELLA TYPHIMURIUM, Strain/Indicator: TA1537, Metabolic Activation: RAT, LIVER, S-9, AROCLOR 1254 (10%), Method: PREINCUBATION) was “inactive; negative”.

`O=C(CCl)Nc1snc2ccc(Cl)cc12` was tested, and the mutagenic call [1] was “inactive; negative”, the mutagenic call (Test System: AMES SALMONELLA TYPHIMURIUM, Strain/Indicator: TA98, Metabolic Activation: S-9, Method: STANDARD PLATE) was “active; positive” and the mutagenic call [3] was “inactive; negative”. For the same compound, the mutagenic call (Test System: AMES SALMONELLA TYPHIMURIUM, Strain/Indicator: TA100, Metabolic Activation: S-9, Method: STANDARD PLATE) was “active; positive”, the mutagenic call [6] was “inactive; negative” and the mutagenic call (Test System: AMES SALMONELLA TYPHIMURIUM, Strain/Indicator: TA1535, Metabolic Activation: S-9, Method: STANDARD PLATE) was “inactive; negative”. For the same compound, the mutagenic call [8] was “active; positive” and the mutagenic call (Test System: AMES SALMONELLA TYPHIMURIUM, Strain/Indicator: TA1537, Metabolic Activation: S-9, Method: STANDARD PLATE) was “active; positive”.

For `C=CC(=O)OC(C)(C)C`, the mutagenic call [1] was “inactive; negative”, the mutagenic call [2] was “inactive; negative” and the mutagenic call (Test System: AMES SALMONELLA TYPHIMURIUM, Strain/Indicator: TA98, Metabolic Activation: RAT, LIVER, S-9, SODIUM PHENOBARBITAL, Method: STANDARD PLATE) was “inactive; negative”. For the same compound, the mutagenic call [3] was “inactive; negative”, the mutagenic call [4] was “inactive; negative” and the mutagenic call (Test System: AMES SALMONELLA TYPHIMURIUM, Strain/Indicator: TA100, Metabolic Activation: RAT, LIVER, S-9, SODIUM PHENOBARBITAL, Method: STANDARD PLATE) was “inactive; negative”. The mutagenic call [6] was “inactive; negative”, the mutagenic call (Test System: AMES SALMONELLA TYPHIMURIUM, Strain/Indicator: TA1535, Metabolic Activation: RAT, LIVER, S-9, AROCLOR 1254, Method: STANDARD PLATE) was “inactive; negative” and the mutagenic call (Test System: AMES SALMONELLA TYPHIMURIUM, Strain/Indicator: TA1535, Metabolic Activation: RAT, LIVER, S-9, SODIUM PHENOBARBITAL, Method: STANDARD PLATE) was “inactive; negative”. For the same compound, the mutagenic call [8] was “inactive; negative”, the mutagenic call (Test System: AMES SALMONELLA TYPHIMURIUM, Strain/Indicator: TA1537, Metabolic Activation: RAT, LIVER, S-9, AROCLOR 1254, Method: STANDARD PLATE) was “inactive; negative” and the mutagenic call (Test System: AMES SALMONELLA TYPHIMURIUM, Strain/Indicator: TA1537, Metabolic Activation: RAT, LIVER, S-9, SODIUM PHENOBARBITAL, Method: STANDARD PLATE) was “inactive; negative”. The mutagenic call (Test System: AMES SALMONELLA TYPHIMURIUM, Strain/Indicator: TA1538, Metabolic Activation: NONE, Method: STANDARD PLATE) was “inactive; negative”, the mutagenic call (Test System: AMES SALMONELLA TYPHIMURIUM, Strain/Indicator: TA1538, Metabolic Activation: RAT, LIVER, S-9, AROCLOR 1254, Method: STANDARD PLATE) was “inactive; negative” and the mutagenic call (Test System: AMES SALMONELLA TYPHIMURIUM, Strain/Indicator: TA1538, Metabolic Activation: RAT, LIVER, S-9, SODIUM PHENOBARBITAL, Method: STANDARD PLATE) was “inactive; negative”.

For `CCN(CCCC(=O)O)N=O`, the mutagenic call (Test System: AMES SALMONELLA TYPHIMURIUM, Strain/Indicator: TA1535, Metabolic Activation: RAT, LIVER, S-9, KC500 OR PHENOBARBITAL, Method: LIQUID SUSPENSION) was “active; positive”.
